The values below come from patent publication US8946217B2, “Pharmaceutical compounds” (F. Hoffman-La Roche AG, priority 2005, dated 2015).

In the data set the test system is Caco-2 cells. Nature of the data set: Caco-2 permeability. The settings on record: bidirectional Caco-2 assay. The data set is classed as in vitro ADME. On the procedure: Caco-2 cells were seeded onto Millipore Multiscreen plates at 1×10^5 cells/cm^2, and were cultured for 20 days. Assessment of compound permeability was subsequently conducted. The compounds were applied to the apical surface (A) of cell monolayers and compound permeation into the basolateral (B) compartment was measured. This was performed in the reverse direction (B-A) to investigate active transport. A permeability coefficient value, Papp, for each compound, a measure of the rate of permeation of the compound across the membrane, was calculated. Compounds were grouped into low (Papp</=[…]) or high (Papp>/=[…]) absorption potential based on comparison with control compounds with established human absorption.
For assessment of a compound's ability to undergo active efflux, the ratio of basolateral (B) to apical (A) transport compared with A to B was determined. Values of B-A/A-B>/=1.0 indicated the occurrence of active cellular efflux. All of the compounds tested through the Caco-2 permeability screen had Papp values >/=[…].

For the compound `CN1CCN(Cc2cc3nc(-c4cccc(O)c4)nc(N4CCOCC4)c3s2)CC1` [PI540], the B-A/A-B asymmetry index result was “less than 1.0”.
